Results as given in US20260042769A1, “TRIARYL AGONISTS OF ALPHA-2 ADRENERGIC RECEPTORS” (ALCEPTOR THERAPEUTICS, INC., priority 2023, published 2026).

Target: T1, human ADRA2B receptor (Homo sapiens, UniProt P18089)
T1 construct: expressed in transfected cells
T1 sequence (P18089 1-450): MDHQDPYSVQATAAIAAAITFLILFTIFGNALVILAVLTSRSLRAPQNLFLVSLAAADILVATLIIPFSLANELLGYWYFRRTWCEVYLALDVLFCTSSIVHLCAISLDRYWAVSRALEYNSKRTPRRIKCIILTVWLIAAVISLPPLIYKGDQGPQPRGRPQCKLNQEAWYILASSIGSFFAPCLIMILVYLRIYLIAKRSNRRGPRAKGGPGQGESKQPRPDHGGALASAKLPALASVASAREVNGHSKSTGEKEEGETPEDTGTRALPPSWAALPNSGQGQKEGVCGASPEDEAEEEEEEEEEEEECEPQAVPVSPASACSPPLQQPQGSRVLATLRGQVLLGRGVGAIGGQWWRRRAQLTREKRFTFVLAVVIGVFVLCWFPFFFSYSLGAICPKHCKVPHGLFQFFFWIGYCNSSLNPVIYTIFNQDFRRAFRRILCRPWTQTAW
Test: ADRA2B arrestin agonist assay
Format: cell-based
Details: CHO-K1 cells stably expressing human ADRA2B; read-out: Beta-Arrestin - Human Alpha2B EC50
Method in brief: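 CHO-K1 cells stably expressing human ADRA2B, thawed from frozen stock and plated overnight, were treated with agonist for 2 h at 37 °C. Arrestin recruitment detected by luminescence after 2 h with detection reagents at room temperature.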

Compound	EC50
COc1nccc(CC(c2c[nH]cn2)c2cccc(C)c2F)n1 (centres unmarked) [Compound 155, 4-[2-(2-fluoro-3-tolyl)-2-(4-imidazolyl)ethyl]-2-methoxypyrimidine]	< 10 nM
Cc1nccc(CC(c2c[nH]cn2)c2cccc3ccn(C)c23)n1 (centres unmarked) [Compound 342, 4-[2-(4-imidazolyl)-2-(1-methyl-7-indolyl)ethyl]-2-methylpyrimidine]	< 10 nM
COc1cc(CC(c2c[nH]cn2)c2cccc(C)c2C)nc(OC)n1 (centres unmarked) [Compound 307, 4-[2-(4-imidazolyl)-2-(2,3-xylyl)ethyl]-2,6-dimethoxypyrimidine]	< 10 nM
c1ccc(C[C@@H](c2c[nH]cn2)c2cccc3c2OCC3)nc1 [Compound 252, 4-[(R)-1-(2,3-dihydro-1-benzofuran-7-yl)-2-(2-pyridyl)ethyl]imida-]	10 to 50 nM
Cc1cccc([C@H](Cc2cnco2)c2c[nH]cn2)c1F [Compound 370, 5-[(S)-2-(2-fluoro-3-tolyl)-2-(4-imidazolyl)ethyl]-1,3-oxazole]	10 to 50 nM
c1cc2c(c(C(Cc3cnco3)c3c[nH]cn3)c1)OCC2 (centres unmarked) [Compound 390, 5-[2-(2,3-dihydro-1-benzofuran-7-yl)-2-(4-imidazolyl)ethyl] 1,3-oxazole]	10 to 50 nM
Cc1cccc(C(Cc2ccncc2F)c2c[nH]cn2)c1C (centres unmarked) [Compound 394, 4-[2-(3-fluoro-4-pyridyl)-1-(2,3-xylyl)ethyl]imidazole]	< 10 nM
Cc1cccc([C@H](Cc2cn(C)nn2)c2c[nH]cn2)c1F [Compound 250, 4-[(S)-2-(2-fluoro-3-tolyl)-2-(4-imidazolyl)ethyl]-1-methyl-1H-1,2,3-triazole]	> 500 nM
COc1ncncc1CC(c1c[nH]cn1)c1cccc(C)c1C (centres unmarked) [Compound 275, 5-[2-(4-imidazolyl)-2-(2,3-xylyl)ethyl]-4-methoxypyrimidine]	10 to 50 nM
c1cc2c(c(C(Cc3cccn4ccnc34)c3c[nH]cn3)c1)OCC2 (centres unmarked) [Compound 400, 4-[2-(1,3a-diaza-7-indenyl)-1-(2,3-dihydro-1-benzofuran-7-yl)ethyl]imidazole]	> 500 nM
Cc1cccc(C(Cc2cncc(F)c2)c2c[nH]cn2)c1F (centres unmarked) [Compound 322, 4-[2-(5-fluoro-3-pyridyl)-1-(2-fluoro-3-tolyl)ethyl]imidazole]	10 to 50 nM
OCc1nccc(CC(c2c[nH]cn2)c2cccc(Cl)c2F)n1 (centres unmarked) [Compound 191, {4-[2-(3-chloro-2-fluorophenyl)-2-(4-imidazolyl)ethyl]-2-pyrimidinyl}methanol]	10 to 50 nM
Cc1nccc(C[C@@H](c2c[nH]cn2)c2cccc(C)c2F)n1 [Compound 141, 4-[(R)-2-(2-fluoro-3-tolyl)-2-(4-imidazolyl)ethyl]-2-methylpyrimidine]	< 10 nM
Cc1cccc([C@H](Cc2cccc(CO)n2)c2c[nH]cn2)c1C [Compound 147, {6-[(S)-2-(4-imidazolyl)-2-(2,3-xylyl)ethyl]-2-pyridyl}methanol]	> 500 nM
Cn1ccc2cccc(C(Cc3cocn3)c3c[nH]cn3)c21 (centres unmarked) [Compound 377, 4-[2-(4-imidazolyl)-2-(1-methyl-7-indolyl)ethyl]-1,3-oxazole]	50 to 500 nM
Cc1cccc([C@@H](Cc2ccnc(C3CC3)n2)c2c[nH]cn2)c1C [Compound 169, 4-[(R)-2-(4-imidazolyl)-2-(2,3-xylyl)ethyl]-2-cyclopropylpyrimidine]	< 10 nM
COc1ncc(CC(c2c[nH]cn2)c2cccc(C)c2C)cn1 (centres unmarked) [Compound 339, 5-[2-(4-imidazolyl)-2-(2,3-xylyl)ethyl]-2-methoxypyrimidine]	50 to 500 nM
Cc1cccc(C(Cc2ncns2)c2c[nH]cn2)c1C (centres unmarked) [Compound 248, 5-[2-(4-imidazolyl)-2-(2,3-xylyl)ethyl]-1,2,4-thiadiazole]	< 10 nM
c1cc2c(c([C@H](Cc3cocn3)c3c[nH]cn3)c1)OCC2 [Compound 372, 4-[(S)-2-(2,3-dihydro-1-benzofuran-7-yl)-2-(4-imidazolyl)ethyl] 1,3-oxazole]	50 to 500 nM
Cc1cccc([C@H](Cc2cc[nH]n2)c2c[nH]cn2)c1C [Compound 235, 3-[(S)-2-(4-imidazolyl)-2-(2,3-xylyl)ethyl]pyrazole]	< 10 nM
Cc1nc(C[C@H](c2c[nH]cn2)c2cccc(C)c2C)c(C)o1 [Compound 380, 4-[(S)-2-(4-imidazolyl)-2-(2,3-xylyl)ethyl]-2,5-dimethyl-1,3-oxazole]	> 500 nM
Cn1ncc2c(C(Cc3cccc(CO)n3)c3c[nH]cn3)cccc21 (centres unmarked) [Compound 301, {6-[2-(4-imidazolyl)-2-(1-methyl-1H-indazol-4-yl)ethyl]-2-pyridyl}methanol]	10 to 50 nM

Compound	EC50
COc1nccc(C[C@@H](c2c[nH]cn2)c2cccc(F)c2OC)n1 [Compound 182, 4-[(R)-2-(3-fluoro-2-methoxyphenyl)-2-(4-imidazolyl)ethyl]-2-methoxypyrimidine]	10 to 50 nM
Cc1cccc([C@H](Cc2cnco2)c2c[nH]cn2)c1C [Compound 364, 5-[(S)-2-(4-imidazolyl)-2-(2,3-xylyl)ethyl]-1,3-oxazole]	< 10 nM
Cc1cccc(C(Cc2ccnc(C(C)C)n2)c2c[nH]cn2)c1C (centres unmarked) [Compound 291, 4-[2-(4-imidazolyl)-2-(2,3-xylyl)ethyl]-2-isopropylpyrimidine]	< 10 nM
COc1cccc(C(Cc2cccnn2)c2c[nH]cn2)c1C (centres unmarked) [Compound 140, 3-[2-(4-imidazolyl)-2 (3-methoxy-2-tolyl)ethyl]pyridazine]	> 500 nM
Cc1cccc([C@H](Cc2ccnc(C3CC3)n2)c2c[nH]cn2)c1C [Compound 168, 4-[(S)-2-(4-imidazolyl)-2-(2,3-xylyl)ethyl]-2-cyclopropylpyrimidine]	10 to 50 nM
COCc1nccc(CC(c2c[nH]cn2)c2cccc3c2OCCO3)n1 (centres unmarked) [Compound 356, 4-[2-(2,3-dihydro-1,4-benzodioxin-5-yl)-2-(4-imidazolyl)ethyl]-2-(methoxymethyl)pyrimidine]	10 to 50 nM
Cc1cc(CC(c2c[nH]cn2)c2cccc(C)c2C)nc(C)n1 (centres unmarked) [Compound 316, 4-[2-(4-imidazolyl)-2-(2,3-xylyl)ethyl]-2,6-dimethylpyrimidine]	< 10 nM
Cc1cnc(CC(c2c[nH]cn2)c2cccc(C)c2C)s1 (centres unmarked) [Compound 385, 2-[2-(4-imidazolyl)-2-(2,3-xylyl)ethyl]-5-methyl-1,3-thiazole]	< 10 nM
Cc1cccc([C@H](Cc2cocn2)c2c[nH]cn2)c1C [Compound 366, 4-[(S)-2-(4-imidazolyl)-2-(2,3-xylyl)ethyl]-1,3-oxazole]	< 10 nM
COc1nccc(CC(c2c[nH]cn2)c2cccc3c(C4CC4)noc23)n1 (centres unmarked) [Compound 357, 3-cyclopropyl-7-[1-(4-imidazolyl)-2-(2-methoxy-4-pyrimidinyl)ethyl]-1,2-benzisoxazole]	> 500 nM
Cc1cccc([C@@H](Cc2cnco2)c2c[nH]cn2)c1F [Compound 369, 5-[(R)-2-(2-fluoro-3-tolyl)-2-(4-imidazolyl)ethyl]-1,3-oxazole]	> 500 nM
Cc1cccc([C@@H](Cc2cn[nH]c2)c2c[nH]cn2)c1C [Compound 232, 4-[(R)-2-(4-imidazolyl)-2-(2,3-xylyl)ethyl]pyrazole]	> 500 nM
COc1c(Cl)cccc1C(Cc1ccnc(C)n1)c1c[nH]cn1 (centres unmarked) [Compound 187, 4-[2-(3-chloro-2-methoxyphenyl)-2-(4-imidazolyl)ethyl]-2-methylpyrimidine]	50 to 500 nM
Cc1cc(CC(c2c[nH]cn2)c2cccc(C)c2C)ncn1 (centres unmarked) [Compound 257, 4-[2-(4-imidazolyl)-2-(2,3-xylyl)ethyl]-6-methylpyrimidine]	> 500 nM
c1cc2c(c([C@H](Cc3cocn3)c3c[nH]cn3)c1)OCCO2 [Compound 384, 4-[(S)-2-(2,3-dihydro-1,4-benzodioxin-5-yl)-2-(4-imidazolyl)ethyl]-1,3-oxazole]	10 to 50 nM
COc1nccc(CC(c2c[nH]cn2)c2cccc3cnn(C)c23)n1 (centres unmarked) [Compound 350, 7-[1-(4-imidazolyl)-2-(2-methoxy-4-pyrimidinyl)ethyl]-1-methyl-1H-indazole]	50 to 500 nM
COc1nccc(CC(c2c[nH]cn2)c2ccccc2OC2CC2)n1 (centres unmarked) [Compound 195, 4-[2-(o-cyclopropoxyphenyl)-2-(4-imidazolyl)ethyl]-2-methoxypyrimidine]	10 to 50 nM
Cc1nccc(CC(c2c[nH]cn2)c2cccc(C)c2Cl)n1 (centres unmarked) [Compound 157, 4-[2-(2-chloro-3-tolyl)-2-(4-imidazolyl)ethyl]-2-methylpyrimidine]	< 10 nM
c1cc2c(c([C@@H](Cc3cocn3)c3c[nH]cn3)c1)OCC2 [Compound 371, 4-[(R)-2-(2,3-dihydro-1-benzofuran-7-yl)-2-(4-imidazolyl)ethyl] 1,3-oxazole]	50 to 500 nM
COc1c(C)cccc1[C@H](Cc1ccnn1C)c1c[nH]cn1 [Compound 382, 5-[(S)-2-(4-imidazolyl)-2-(2-methoxy-3-tolyl)ethyl]-1-methylpyrazole]	10 to 50 nM
COc1nccc(CC(c2c[nH]cn2)c2ccc(C)c(F)c2F)n1 (centres unmarked) [Compound 189, 4-[2-(2,3-difluoro-4-tolyl)-2-(4-imidazolyl)ethyl]-2-methoxypyrimidine]	> 500 nM

Same assay, conditions: read-out: Beta-Arrestin - Human Alpha2B EC50

Compound	EC50
Cc1cccc([C@H](Cc2ccncc2)c2c[nH]cn2)c1C [Compound 319, 4-[(S)-2-(4-pyridyl)-1-(2,3-xylyl)ethyl]imidazole]	< 10 nM
